Measurements from PMC5983544, “Muscarinic M5 receptors modulate ethanol seeking in rats” (Neuropsychopharmacology, 2018).

Assays:
[1] = test system: ethanol-preferring (iP) rats; assay: Locomotor activity; format: in vivo, rat; details: 60 min
Experimental: Rats (n = 6) were habituated to the locomotor room for at least 3 h.

[2] = molecular target: T1, rat M1 mAChR (Rattus norvegicus, UniProt P08482); assay: ACh-stimulated IP accumulation (IP-One) in CHO-rM1 cells; format: cell-based
T1 construct: host or cells: FlpIn CHO cells (Invitrogen)
T1 sequence (P08482 1-460): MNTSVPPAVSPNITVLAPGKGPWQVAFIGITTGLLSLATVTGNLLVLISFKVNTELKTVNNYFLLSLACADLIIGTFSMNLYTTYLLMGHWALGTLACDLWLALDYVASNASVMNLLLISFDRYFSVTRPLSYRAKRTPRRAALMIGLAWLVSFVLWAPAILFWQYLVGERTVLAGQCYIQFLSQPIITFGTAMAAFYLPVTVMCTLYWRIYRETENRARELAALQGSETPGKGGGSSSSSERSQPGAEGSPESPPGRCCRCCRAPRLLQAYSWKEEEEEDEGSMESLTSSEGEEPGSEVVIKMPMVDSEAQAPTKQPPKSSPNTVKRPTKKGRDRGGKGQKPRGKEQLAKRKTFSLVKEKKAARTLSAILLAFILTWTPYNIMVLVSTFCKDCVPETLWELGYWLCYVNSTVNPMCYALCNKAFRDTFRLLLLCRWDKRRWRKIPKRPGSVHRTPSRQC
Experimental: The IP-One assay kit (Cisbio) was used for the direct quantitative measurement of inositol phosphate (IP) accumulation in CHO-rM1, CHO-rM3 or CHO-rM5 cells, as described previously. The CHO-hCB1 pERK1/2 assays were performed as described in ref [24].

[3] = test system: ethanol-preferring (iP) rats; assay: Ethanol self-administration after bilateral microinjection into dorsolateral (DL) striatum; format: in vivo, rat; details: intra-DL striatum, 105 pmol/hemisphere
Description: (§1) Male iP rats (n = 14) were trained to self-administer 10% (v/v) ethanol via lever presses under FR3 operant conditions for approximately 12 weeks, in the presence of a 1-s light conditioned stimulus (CS+) occurring when the ethanol solution was delivered and an olfactory cue (S+ cue; one drop of vanilla essence, placed directly below the ethanol-paired (active) lever), as previously described, followed by surgery and testing. […] Rats were then given 7 days of ethanol self-administration before receiving the alternate treatment in a counterbalanced manner. For full details refer to Supplementary material.
(§2) Microinjections were performed as previously described; for full details see Supplementary material.

[4] = test system: ethanol-preferring (iP) rats; assay: Cue-induced reinstatement of ethanol seeking; format: in vivo, rat; details: 3 × 30 mg/kg p.o.
Experimental: A separate cohort of rats (n = 11) underwent 12 weeks of operant ethanol (10% v/v) self-administration followed by extinction training, where lever presses had no programmed consequences. Extinction occurred in the absence of CS+ and S+ cues. […] Subsequently, rats were tested for cue-induced reinstatement by re-introduction of the ethanol-paired CS+ and S+ cues, but in the absence of reward delivery. Rats were then re-extinguished and submitted to a second reinstatement session with the counterbalanced treatment.

[5] = Rat pharmacokinetics (intraperitoneal or oral dosing); format: in vivo
Experimental: ML375 pharmacokinetics after either intraperitoneal or oral dosing of rats was determined as described in Supplementary information.

[6] = test system: ethanol-preferring (iP) rats; assay: Ethanol self-administration after bilateral microinjection into dorsomedial (DM) striatum; format: in vivo, rat; details: intra-DM striatum, 105 pmol/hemisphere
Description: as §1, §2
There was a main effect of lever (F(1, 15) = 59.4, P < 0.0001) but no effect of treatment (F(1, 15) = 0.22, P = 0.65) (Fig. 5b).

[7] = test system: ethanol-preferring (iP) rats; assay: Operant sucrose self-administration, oral dosing; format: in vivo, rat; details: 30 mg/kg p.o. x3
Description: A separate cohort of rats were trained to self-administer sucrose (0.05–1% w/v). Rats underwent an identical dosing regimen of vehicle or ML375 before testing.

[8] = molecular target: T2, rat M5 mAChR (Rattus norvegicus, UniProt P08911); assay: [3H]NMS equilibrium binding in whole CHO-rM5 cells (interaction with ACh); details: whole-cell [3H]NMS binding, read-out: binding affinity pKB (converted)
T2 sequence (P08911 1-531): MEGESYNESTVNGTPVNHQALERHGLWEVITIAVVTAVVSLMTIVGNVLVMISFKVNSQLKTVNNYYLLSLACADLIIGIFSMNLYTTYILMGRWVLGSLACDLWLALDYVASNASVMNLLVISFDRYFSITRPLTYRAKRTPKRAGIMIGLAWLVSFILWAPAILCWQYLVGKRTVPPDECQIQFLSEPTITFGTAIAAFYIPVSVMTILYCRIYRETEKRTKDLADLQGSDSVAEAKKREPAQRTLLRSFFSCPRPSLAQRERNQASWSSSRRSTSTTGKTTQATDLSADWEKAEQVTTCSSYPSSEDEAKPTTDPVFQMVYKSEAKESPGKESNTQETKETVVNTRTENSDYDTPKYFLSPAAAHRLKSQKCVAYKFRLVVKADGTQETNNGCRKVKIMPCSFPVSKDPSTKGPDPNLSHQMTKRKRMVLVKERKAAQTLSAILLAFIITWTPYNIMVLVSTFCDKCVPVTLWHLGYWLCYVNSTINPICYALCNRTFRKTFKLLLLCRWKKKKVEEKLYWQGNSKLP
Experimental: (§3) Rat mAChR subtypes (rM1–rM5; Origene) and human cannabinoid 1 receptor (hCB1; ref. [24]) constructs were isogenically integrated into FlpIn CHO cells (Invitrogen) and cells were selected in the presence of […] hygromycin B at 37 °C, 5% CO2, as previously described for the human M1 mAChR [25]. All cells were sub-cultured and seeded as previously described for the CHO-hM5 cells.
(§4) [^3H]NMS equilibrium binding assays in CHO-rM1 to CHO-rM5 cells were performed as previously described for CHO-hM5 cells. For [^35S]GTPγS binding, CHO-rM2 and CHO-rM4 cell membranes were prepared as described in Supplementary information. Membrane [^35S]GTPγS binding was performed as described in ref [26]., except GDP and [^35S]GTPγS concentrations were 1 μM and 0.3 nM, respectively. [^3H](+)-pentazocine binding was performed as described in ref. [27].

[9] = molecular target: T1, rat M1 mAChR; assay: [3H]NMS equilibrium binding in whole CHO-rM1 cells; details: rM1, [3H]NMS binding
Experimental: as §3, §4

[10] = test system: hM5 mAChR; details: cited from earlier work
[11] = single 30 mg/kg oral dose, plasma

SMILES: O=C(c1ccc(F)c(F)c1)N1CCN2C(=O)c3ccccc3[C@@]12c1ccc(Cl)cc1 [ML375, (S)-9b-(4-chlorophenyl)-1-(3,4-difluorobenzoyl)-2,3-dihydro-1H-imidazo[2,1-a]isoi ndol-5(9bH)-one]
- locomotor activity vs vehicle ([1]; 30 mg/kg p.o., P = 0.53): no difference
- locomotor activity vs vehicle ([1]; 56.6 mg/kg p.o., P = 0.016): did reduce locomotor activity
- effect on ACh potency [2]: no significant effects
- responding for ethanol vs vehicle ([3]; P = 0.011): significantly reduced responding for ethanol
- responding for water vs vehicle ([3]; P > 0.99): no difference
- cue-induced reinstatement of ethanol seeking (active lever) vs vehicle ([4]; P = 0.015): significantly attenuated
- responding for the previously water-paired lever vs vehicle ([4]; P > 0.99): no differences
- clearance ([5]; 20 mg/kg i.p., 24 h profile): low clearance
- terminal half-life ([5]; 20 mg/kg i.p., 24 h profile): long terminal half-life
- Kp at 24 h ([5]; brain and plasma, ip, 20 mg/kg i.p., 24 h timepoint, read-out: brain-to-plasma ratio): 3 ± 0.7
- Cmax [5, 11]: 4.7 ± 0.7 µM
- Tmax [5, 11]: 7 h
- ethanol responding vs vehicle [6]: did not affect ethanol responding
- sucrose responding vs vehicle ([7]; sucrose 0.05–1% w/v, P = 0.96): did not alter sucrose responding
- water responding vs vehicle ([7]; sucrose-trained rats, P = 1.0): no difference
- Kb [8]: 355 nM
- effect on ACh affinity [9]: no significant effects
- functional affinity pKB [10]: 6.22
